Values of other authors in paper PMC9917560, “Design, Synthesis and Antimicrobial Evaluation of New N-(1-Hydroxy-1,3-dihydrobenzo[c][1,2]oxaborol-6-yl)(hetero)aryl-2-carboxamides as Potential Inhibitors of Mycobacterial Leucyl-tRNA Synthetase” (International Journal of Molecular Sciences, 2023).
Marks after values point to notes of the source that are not given here.

Assays:
Mtb H37Rv = system: Mtb H37Rv; design: method as in PMID 27503647; settings: compounds synthesized and evaluated by Palencia et al. ref [13]; cited from earlier work
Mtb LeuRS = system: Mtb LeuRS; design: method as in PMID 27503647, PMID 28953378; settings: ref [13],[14]; read-out: IC50 against LeuRS; cited from earlier work

**Q.** With `OB1OCc2ccccc21` [Compound C00021, (3H)-Benzo[c][1,2]oxaborol-1-ol] as the compound, how does the “MIC Mtb H37Rv” value (Mtb H37Rv) read?
**A.** 55.99 * µM

**Q.** For `NC[C@H]1OB(O)c2c(OCCO)ccc(Cl)c21` [GSK656, (S)-3-(Aminomethyl)-4-chloro-7-(2hydroxyethoxy)benzo c 1,2 oxaborol-1(3 H)-ol], which IC50 (Mtb LeuRS) is on record?
**A.** 200 nM
